The results in this text go back to ChEMBL document CHEMBL1201862, “PubChem BioAssay data set” (2004).

Molecules are shown by their SMILES.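 Method: 48-hour compound exposure of cells in 96-well plates, five concentrations, linear interpolation of endpoints. GI50 marks 50% less growth.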 The source made the active and inactive calls. Cut-off read from the data, not from the text of the source: active = GI50 up to about 1.1 µM and inactive = higher.

Some test systems named below: OVCAR-3; MCF7; MDA-MB-435; A549; SK-MEL-28; PC-3; U-251; HT-29; RXF 393; ACHN; HCT-15; SK-OV-3; 786-0; SF-295; NCI-H460; A498; UACC-62; Malme-3M; CCRF-CEM; SR.
Assay in all cases: NCI anticancer screen, dose series, 48 h

Turning to `C[C@H](C1CC2(C)OC2(C)C(=O)O1)[C@H]1CC[C@H]2[C@@H]3[C@@H]4O[C@@H]4[C@@]4(O)CC=CC(=O)[C@]4(C)[C@H]3CC[C@]12C` (stereo not given in full), the GI50 with OVCAR-3, in the assay with MCF7, in the assay with MDA-MB-435, in the assay with A549, in the assay with SK-MEL-28 and in the assay with PC-3 was > 50 µM (inactive) in each case. For the same molecule, the GI50 in the assay with U-251 is > 50 µM (inactive); in the assay on HT-29, > 50 µM (inactive); in the assay on RXF 393 it was 9.71 µM (inactive); with ACHN it was > 50 µM (inactive); in the assay on HCT-15, over 50 µM; with SK-OV-3 it was > 50 µM (inactive). Further, the GI50 in the assay on 786-0, with SF-295, in the assay on NCI-H460, with A498 and with UACC-62 was > 50 µM (inactive) in each case.

Regarding `Cc1ccc(S(=O)(=O)Nn2c(O)c(C#N)c(-c3ccc(N(C)C)cc3)c(C#N)c2=O)cc1`, the GI50 in the assay on MCF7, with MDA-MB-435, in the assay on A549, in the assay with SK-MEL-28, in the assay on PC-3 and with U-251 was > 50 µM (inactive) each time. The GI50 with HT-29 is > 50 µM (inactive); with RXF 393, > 50 µM (inactive); in the assay with ACHN, > 50 µM (inactive); in the assay with HCT-15, over 50 µM; in the assay on SK-OV-3, 0.142 µM (active); in the assay with 786-0, > 50 µM (inactive). Also, the GI50 in the assay with SF-295 was 0.023 µM (active); in the assay on NCI-H460 it was > 50 µM (inactive); in the assay with Malme-3M, > 50 µM (inactive); with A498 it was > 50 µM (inactive); with UACC-62 it was 19.8 µM (inactive); in the assay on CCRF-CEM, > 50 µM (inactive).

For the molecule `CC12CCC(C(=O)n3c1nc1ccccc13)C(C)(C)O2` (stereo not given), the GI50 in the assay with OVCAR-3, in the assay with MCF7, with MDA-MB-435, in the assay with A549, in the assay with SR and with SK-MEL-28 was > 100 µM (inactive) each time. The GI50 in the assay with PC-3 is > 100 µM (inactive); with U-251 it was > 100 µM (inactive); with HT-29 it was > 100 µM (inactive); in the assay on RXF 393 it was > 100 µM (inactive); in the assay with ACHN, > 100 µM (inactive); in the assay on HCT-15, over 100 µM. The GI50 in the assay on SK-OV-3, with 786-0, in the assay on SF-295, in the assay with Malme-3M, with UACC-62 and in the assay with CCRF-CEM was > 100 µM (inactive) throughout.

With `CCOC(=O)c1cc2c3c(c(C(C)=O)c(OC)c2[nH]1)N(C(=O)CC)CC3`, the GI50 in the assay with OVCAR-3 was 14.5 µM (inactive); in the assay on MCF7 it was 14.5 µM (inactive); in the assay with MDA-MB-435 it was 15.6 µM (inactive); in the assay on A549 it was 14 µM (inactive); with SK-MEL-28, 15.3 µM (inactive); in the assay on PC-3 it was 23.3 µM (inactive). Besides, the GI50 was 19.2 µM (inactive) in the assay with U-251; 16.6 µM (inactive) in the assay on HT-29; 19.6 µM (inactive) in the assay with RXF 393; 16.5 µM with HCT-15; 50.1 µM (inactive) in the assay on SK-OV-3; 17.5 µM (inactive) in the assay with 786-0. The GI50 in the assay on SF-295 was 19.3 µM (inactive); in the assay on NCI-H460, 16.7 µM (inactive); in the assay with Malme-3M it was 12.6 µM (inactive); in the assay with A498, 36.9 µM (inactive); in the assay on UACC-62, 16.3 µM (inactive); in the assay with CCRF-CEM, 13.7 µM (inactive).

On to `CC1CC(C#N)=C2NCCCCN2C1=O` (stereo not given), for which the GI50 with OVCAR-3, with MCF7, in the assay on MDA-MB-435, with A549, in the assay with SR and in the assay with SK-MEL-28 was > 100 µM (inactive) in each case. Also, the GI50 in the assay with PC-3 is > 100 µM (inactive); in the assay on U-251, > 100 µM (inactive); in the assay with HT-29, > 100 µM (inactive); in the assay with RXF 393, > 100 µM (inactive); in the assay with HCT-15, over 100 µM; in the assay with SK-OV-3, > 100 µM (inactive). For the same molecule, the GI50 in the assay on 786-0, in the assay with SF-295, in the assay with NCI-H460, in the assay on Malme-3M, with UACC-62 and in the assay with CCRF-CEM was > 100 µM (inactive) in each case.

Take `CC1CNC(c2ccc(CN3CCC(C4CCN(Cc5ccc(C6=NC(C)CN6)cc5)CC4)CC3)cc2)=N1` (stereo not given): the GI50 with OVCAR-3 is 17.5 µM (inactive); in the assay with MCF7, 17 µM (inactive); in the assay on MDA-MB-435, 20.8 µM (inactive); in the assay with A549 it was 20.6 µM (inactive); in the assay on SK-MEL-28 it was 32.6 µM (inactive); in the assay on PC-3, 17.7 µM (inactive). Further, the GI50 in the assay with U-251 is 16 µM (inactive); in the assay on HT-29, 18.5 µM (inactive); with RXF 393, 16.9 µM (inactive); in the assay on ACHN, 26.5 µM (inactive); in the assay with HCT-15 it was 27.5 µM; with SK-OV-3, 16.3 µM (inactive). For the same molecule, the GI50 with 786-0 is 19.1 µM (inactive); in the assay on SF-295, 17 µM (inactive); in the assay on NCI-H460, 18.5 µM (inactive); in the assay on Malme-3M it was 23.9 µM (inactive); in the assay with A498, 29.2 µM (inactive); in the assay with UACC-62, 19.9 µM (inactive). The GI50 in the assay with CCRF-CEM was 13.9 µM (inactive).

As to `CC(C)C(=O)CC(Sc1ccc(N)cc1)c1ccccc1` (stereo not given), the GI50 is 27.6 µM (inactive) in the assay on OVCAR-3; 18.2 µM (inactive) in the assay on MCF7; 13.6 µM (inactive) with MDA-MB-435; 28.1 µM (inactive) in the assay on A549; 30.8 µM (inactive) with SK-MEL-28; 35.4 µM (inactive) in the assay on PC-3. The GI50 in the assay with U-251 was 16.6 µM (inactive); in the assay with HT-29, 27.5 µM (inactive); in the assay on RXF 393, 25.9 µM (inactive); in the assay with ACHN, 20 µM (inactive); in the assay on HCT-15, 27.4 µM; with SK-OV-3 it was 26.4 µM (inactive). Further, the GI50 in the assay on 786-0 was 28.8 µM (inactive); with SF-295, 25.6 µM (inactive); with NCI-H460, 23.2 µM (inactive); in the assay on Malme-3M it was 35.1 µM (inactive); in the assay on A498 it was 36.2 µM (inactive); with UACC-62, 19 µM (inactive). For the same molecule, in the assay on CCRF-CEM, the GI50 was 17.1 µM (inactive).

Turning to `Cc1ccc2oc3c(c(Br)c(Br)n3C)c(=O)c2c1`, the GI50 in the assay with OVCAR-3 was 19.6 µM (inactive); in the assay on MCF7, 90.6 µM (inactive); with MDA-MB-435 it was > 100 µM (inactive); in the assay with A549, 20.5 µM (inactive); with SK-MEL-28, > 100 µM (inactive); in the assay with PC-3 it was 35 µM (inactive). The GI50 is 18.2 µM (inactive) with U-251; 91.8 µM (inactive) in the assay on HT-29; 16.9 µM (inactive) in the assay on RXF 393; 16.7 µM (inactive) in the assay on ACHN; over 100 µM with HCT-15; 16.7 µM (inactive) with 786-0. Moreover, the GI50 in the assay on SF-295 is 20.4 µM (inactive); with Malme-3M, 24.7 µM (inactive); in the assay with A498, 20.9 µM (inactive); in the assay with UACC-62 it was 19.6 µM (inactive); with CCRF-CEM, > 100 µM (inactive).

For the molecule `CC(=O)NC1C(OCC(=O)NC(C)C(=O)NC(CCC(=O)NCCCCCNc2ccc([N+](=O)[O-])c3[nH]c4ccccc4c(=O)c23)C(N)=O)C(O)C(CO)OC1(C)OCc1ccccc1` (stereo not given), the GI50 in the assay on OVCAR-3 was > 50 µM (inactive); in the assay on MCF7, > 50 µM (inactive); in the assay with MDA-MB-435 it was > 50 µM (inactive); with A549, > 50 µM (inactive); in the assay with PC-3 it was > 50 µM (inactive); with U-251, 39.3 µM (inactive). Moreover, the GI50 in the assay with HT-29 was 38.6 µM (inactive); with RXF 393, 3.48 µM (inactive); in the assay with ACHN, 31.6 µM (inactive); in the assay on HCT-15, over 50 µM; with SK-OV-3 it was 39.1 µM (inactive); with 786-0, 13 µM (inactive). For the same molecule, the GI50 with SF-295 was 45.4 µM (inactive); with NCI-H460 it was 18.4 µM (inactive); with Malme-3M, 12 µM (inactive); in the assay with A498 it was > 50 µM (inactive); in the assay on UACC-62 it was > 50 µM (inactive); in the assay on CCRF-CEM, 3.75 µM (inactive).

For `CCCNC1=Nc2ccccc2[C@@H]2N(C)c3ccccc3C(C)C[C@]12C` (stereo not given in full), the GI50 in the assay with OVCAR-3 is 19.2 µM (inactive); in the assay with MCF7, 21.3 µM (inactive); in the assay with MDA-MB-435 it was 17.8 µM (inactive); in the assay with A549, 28.8 µM (inactive); with SK-MEL-28, 18.3 µM (inactive); with PC-3 it was 16 µM (inactive). Moreover, the GI50 was 13.2 µM (inactive) with HT-29; 19.7 µM (inactive) with RXF 393; 23.8 µM (inactive) in the assay with ACHN; 23.6 µM in the assay on HCT-15; 18.5 µM (inactive) with 786-0; 16.3 µM (inactive) in the assay with SF-295. Also, the GI50 was 24.5 µM (inactive) with NCI-H460; 16.6 µM (inactive) in the assay with Malme-3M; 14.4 µM (inactive) in the assay with A498; 16.1 µM (inactive) in the assay on UACC-62; 26 µM (inactive) in the assay with CCRF-CEM.

In the case of `CCn1cc(C(=O)O)c(=O)c2ccc(C)nc21` [NALIDIXIC ACID], the GI50 in the assay on OVCAR-3, in the assay on MCF7, in the assay on MDA-MB-435, in the assay with A549, in the assay on SR and with SK-MEL-28 was > 100 µM (inactive) each time. For the same molecule, the GI50 with PC-3 was > 100 µM (inactive); with U-251, > 100 µM (inactive); with HT-29, > 100 µM (inactive); in the assay with ACHN it was > 100 µM (inactive); in the assay on HCT-15 it was over 100 µM; with 786-0 it was > 100 µM (inactive). Moreover, the GI50 in the assay with SF-295, with NCI-H460, in the assay on Malme-3M and in the assay on CCRF-CEM was > 100 µM (inactive) each time.
